# Target: T1, human PAD4 (Homo sapiens, UniProt Q9UM07)
# T1 construct: human PAD4 (NM_012387), A2-P663, was PCR amplified; His-SUMO (N, cleaved yes); made in house; host or cells: E. coli BL21(DE3)
# Assay: In vitro PAD4 BAEE biochemical assay
# Settings: BAEE substrate 3 mM, 5 nM PAD4, 2 mM calcium chloride; geometric mean of multiple experiments
# In short: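 Recombinant human PAD4 (5 nM final) with 2 mM CaCl2 was preincubated with compound 30 min at 25 °C in MOPS buffer pH 7.6, then reacted with 3 mM BAEE for 2 h at 25 °C. After EDTA stop, released ammonia was detected by o-phthalaldehyde/DTT fluorescence (ex 405/em 535 nm); IC50 from four-parameter fit, geometric mean.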
# T1 sequence (Q9UM07 2-663): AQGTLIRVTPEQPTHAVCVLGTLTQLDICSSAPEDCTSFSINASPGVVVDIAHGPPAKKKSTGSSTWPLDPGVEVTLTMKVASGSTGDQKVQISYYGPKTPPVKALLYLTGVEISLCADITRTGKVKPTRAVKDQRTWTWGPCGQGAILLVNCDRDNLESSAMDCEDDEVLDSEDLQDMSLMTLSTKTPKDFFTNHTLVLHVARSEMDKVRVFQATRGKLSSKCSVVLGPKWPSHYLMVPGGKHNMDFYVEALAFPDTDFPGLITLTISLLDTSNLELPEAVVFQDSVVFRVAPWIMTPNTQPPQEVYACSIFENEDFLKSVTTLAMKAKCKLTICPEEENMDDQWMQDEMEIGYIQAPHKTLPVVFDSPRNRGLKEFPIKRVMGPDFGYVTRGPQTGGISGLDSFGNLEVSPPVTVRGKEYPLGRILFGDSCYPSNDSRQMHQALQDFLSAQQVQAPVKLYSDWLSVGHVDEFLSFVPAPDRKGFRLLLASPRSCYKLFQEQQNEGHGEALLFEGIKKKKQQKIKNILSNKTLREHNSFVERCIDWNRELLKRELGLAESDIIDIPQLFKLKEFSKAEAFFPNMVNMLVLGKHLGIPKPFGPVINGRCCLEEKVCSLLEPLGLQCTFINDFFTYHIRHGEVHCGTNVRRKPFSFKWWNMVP
row,IC50 [µM],SMILES
1,0.172,"CO[C@@H]1CCN(C(=O)c2cc(Cl)c3c(c2)nc(-c2cc4ccc5nc4n2CCCCCc2nccnc2C(=O)N[C@@H]5C)n3C)C[C@@H]1N [Example 504, (2~{R})-17-[5-[(3~ {S},4~{R})-3-amino-4-methoxy-piperidine-1-carbonyl]-7-chloro-1-methyl-benzimidazol-2-yl]-2-methyl-3,6,9,16,22-pentazatetracyclo [14.5.2.0^{5,10}.0^{19, 23}]tricosa-1(22),5(10), 6,8,17,19(23),20-heptaen-4-one]"
2,0.123,"C[C@H]1NC(=O)C(C)(C)CCCCCCn2c(-c3nc4cc(C(=O)N[C@H]5CNCC[C@@H]5F)c(Cl)cc4n3C)cc3ccc1nc32 [Example 541, 6-chloro-~{N}-[(3~ {S),4~{S})-4-fluoro-3-piperidyl]-1-methyl-2-[(11~{R})-8,8,11-trimethyl-9-oxo-1,10,19-triazatricyclo[10.5.2.0^ {15,18}]nonadeca-12(19), 13,15(18),16-tetraen-17-yl]benzimidazole-5-carboxamide]"
3,0.056,"C[C@H]1NC(=O)C(C)(C)CCCCCCn2c(-c3nc4cc(C(=O)N5[C@H]6CC[C@@H]5[C@H](N)C6)c(F)c(F)c4n3C)cc3ccc1nc32 [Example 555, (11~{R})-17-[5-[(1~{R}, 2~{R},4~{S})-2-amino-7-azabicyclo [2.2.1]heptane-7-carbonyl]-6,7-difluoro-1-methyl-benzimidazol-2-yl]-8,8,11-trimethyl-1,10,19-triazatricyclo [10.5.2.0^{15,18}]nonadeca-12(19),13,15(18),16-tetraen-9-one]"
4,0.068,C[C@H]1NC(=O)[C@@H]2C[C@H]2CCCCCn2c(-c3nc4cc(C(=O)N[C@H]5CNCC[C@@H]5F)c(F)cc4n3CCOc3ccccc3)cc3ccc1nc32 [Example 429]
5,0.128,"COc1cc(C(=O)N2CC[C@@H](OC)[C@@H](N)C2)cc2nc(-c3cc4ccc5nc4n3CC/C=C\C[C@H]3C[C@H]3C(=O)N[C@@H]5C)n(C)c12 [Example 517, (2~{R},5~{R},7~ {S},9~{Z})-14-[5-[(3~{S},4~{R})-3-amino-4-methoxy-piperidine-1-carbonyl]-7-methoxy-1-methyl-benzimidazol-2-yl]-2-methyl-3,13,19-triazatetracyclo[11.5.2.0^ {5,7}.0^{16,20}] icosa-1(19),9,14,16(20), 17-pentaen-4-one]"
6,0.185,"C[C@H]1NC(=O)[C@@H]2C[C@H]2CCCCCn2c(-c3nc4cc(C(=O)N5CC[C@@H](OC(F)F)[C@@H](N)C5)cc5c4n3CCO5)cc3ccc1nc32 [Example 734, (2~{R},5~{R},7~{R})-14-[6-[(3~{S},4~{R})-3-amino-4-(difluoromethoxy)piperidine-1-carbonyl]-9-oxa-1,3-diazatricyclo[6.3.1.0^{4,12}]dodeca-2,4,6,8(12)-tetraen-2-yl]-2-methyl-3,13,19-triazatetracyclo[11.5.2.0^ {5,7}.0^{16,20}]icosa-1(19), 14,16(20),17-tetraen-4-one]"
7,0.024,"C[C@H]1NC(=O)[C@@H]2C[C@H]2CCCCCn2c(-c3nc4cc(C(=O)N[C@H]5CNCC[C@@H]5F)c(F)cn4c3C3CC3)cc3ccc1nc32 [Example 580, 3-cyclopropyl-6-fluoro-~ {N}-[(3~{S},4~{S})-4-fluoro-3-piperidyl]-2-[(2~{R},5~{R},7~{R})-2-methyl-4-oxo-3,13,19-triazatetracyclo[11.5.2.0^ {5,7}.0^{16,20}]icosa-1(19),14,16(20),17-tetraen-14-yl]imidazo[1,2-a] pyridine-7-carboxamide]"
8,0.049,"COc1cc(C(=O)N2C[C@H](N)[C@@H]3CC[C@H]2C3)cc2nc(-c3cc4ccc5nc4n3CCCCCc3nc(C(F)(F)F)ccc3C(=O)N[C@@H]5C)n(C)c12 [Example 842, (2~{R})-17-[5-[(1~{S},4~{R},5~ {R})-4-amino-2-azabicyclo[3.2.1]octane-2-carbonyl]-7-methoxy-1-methyl-benzimidazol-2-yl]-2-methyl-8-(trifluoromethyl)-3,9,16,22-tetrazatetracyclo[14.5.2.0^ {5,10}.0^{19,23}]tricosa-1(22), 5(10),6,8,17,19(23),20-heptaen-4-one]"
9,0.069,"COc1cc(C(=O)N[C@H]2CNCC[C@@H]2F)cc2nc(-c3cc4ccc5nc4n3CCCCC[C@]3(C)C[C@H]3C(=O)N[C@@H]5C)n(C)c12 [Example 618, 2-[(2~{R},5~{R},7~{R})-2,7-dimethyl-4-oxo-3,13,19-triazatetracyclo[11.5.2.0^ {5,7}.0^{16,20}]icosa-1(19),14,16(20), 17-tetraen-14-yl]- ~{N}-[(3~{S},4~{S})-4-fluoro-3-piperidyl]-7-methoxy-1-methyl-benzimidazole-5-carboxamide]"

# Continued, compound first:
row,SMILES,IC50 [µM]
1,"C[C@H]1NC(=O)c2cnccc2CCCCCn2c(-c3nc4cc(C(=O)N[C@H]5CNCC[C@@H]5F)c(F)cc4n3C)cc3ccc1nc32 [Example 349, 6-fluoro-~{N}-[(3~{S},4~{S})-4-fluoro-3-piperidyl]-1-methyl-2-[(2~{R})-2-methyl-4-oxo-3,7,16,22-tetrazatetracyclo[14.5.2.0^{5,10}.0^{19,23}]tricosa-1(22),5,7,9,17,19(23),20-heptaen-17-yl]benzimidazole-5-carboxamide]",0.034
2,"COc1cc(C(=O)N2[C@H]3CC[C@@H]2[C@H](N)C3)cc2nc(-c3cc4ccc5nc4n3C[C@H]3[C@@H](COCCC(=O)N[C@@H]5C)C3(C)C)n(C)c12 (single isomer, unassigned) [Example 11, (3˜{S},5˜{R},12˜{R})-18-[5-[(1˜{R},2˜{R},4˜{S})-2-amino-7-azabicyclo[2.2.1]heptane-7-carbonyl]-7-methoxy-1-methyl-benzimidazol-2-yl]-4,4,12-trimethyl-7-oxa-1,11,20-triazatetracyclo[11.5.2.0^{3,5}.0^{16,19}]icosa-13(20),14,16(19),7-tetraen-10-one]",0.251
3,"C[C@H]1NC(=O)[C@H]2[C@H](CCCCCn3c(-c4nc5cc(C(=O)N[C@H]6CNCC[C@@H]6F)c(F)cc5n4C4CC4)cc4ccc1nc43)C2(F)F [Example 394, 1-cyclopropyl-2-[(2~{R},5~{R},7~{S})-6,6-difluoro-2-methyl-4-oxo-3,13,19-triazatetracyclo[11.5.2.0^{5,7}.0^{16,20}]icosa-1(19),14,16(20),17-tetraen-14-yl]-6-fluoro-~{N}-[(3~{S},4~{S})-4-fluoro-3-piperidyl]benzimidazole-5-carboxamide]",0.023
4,"COc1cc(C(=O)N2[C@H]3CC[C@@H]2[C@H](N)C3)cc2nc(-c3cc4ccc5nc4n3CCCCCC[C@@](C)(C(F)(F)F)C(=O)N[C@@H]5C)n(C)c12 [Example 12, (8~{R},11~{R})-17-[5-[(1~{R},2~{R},4~{S})-2-amino-7-azabicyclo[2.2.1]heptane-7-carbonyl]-7-methoxy-1-methyl-benzimidazol-2-yl]-8,11-dimethyl-8-(trifluoromethyl)-1,10,19-triazatricyclo[10.5.2.0^{15,18}]nonadeca-12(19),13,15(18),16-tetraen-9-one]",0.12
5,"COc1cc(C(=O)N2[C@H]3CC[C@@H]2[C@H](N)C3)cc2nc(-c3cc4ccc5cc4n3CCCCCCC(C)(C)C(=O)Nc3ccccc3-5)n(C)c12 [Example 100, 18-[5-[(1~{R},2~{R},4~{S})-2-amino-7-azabicyclo[2.2.1]heptane-7-carbonyl]-7-methoxy-1-methyl-benzimidazol-2-yl]-10,10-dimethyl-8,17-diazatetracyclo[15.5.2.0^{2,7}.0^{20,24}] tetracosa-1(23),2(7),3,5,18,20(24),21-heptaen-9-one]",0.833
6,"COc1cc(C(=O)N2[C@H]3CC[C@@H]2[C@H](N)C3)cc2nc(-c3cc4ccc5nc4n3C[C@H]3C[C@@H]3COCCC(=O)N[C@@H]5C)c(C3CC3)n12 [Example 214, (3~{S),5~{S},12~{R})-18-[7-[(1~{R},2~{R},4~{S})-2-amino-7-azabicyclo[2.2.1]heptane-7-carbonyl]-3-cyclopropyl-5-methoxy-imidazo[1,2-a]pyridin-2-yl]-12-methyl-7-oxa-1,11,20-triazatetracyclo[11.5.2.0^{3,5}.0^{16,19}] icosa-13(20),14,16(19),17-tetraen-10-one]",0.015
7,"C[C@H]1NC(=O)c2ccncc2CCCCCn2c(-c3nc4cc(C(=O)N[C@H]5CNCC[C@@H]5F)c(F)cc4n3C3CC3)cc3ccc1nc32 [Example 353, 1-cyclopropyl-6-fluoro-~{N}-[(3~{S},4~{S})-4-fluoro-3-piperidyl]-2-[(2~{R})-2-methyl-4-oxo-3,8,16,22-tetrazatetracyclo[14.5.2.0^{5,10}.0^{19,23}]tricosa-1(22),5,7,9,17,19(23),20-heptaen-17-yl]benzimidazole-5-carboxamide]",0.029
8,"COc1cc(C(=O)N2CC[C@@H](C)[C@@H](N)C2)cc2nc(-c3cc4ccc5nc4n3CCCCCCC(C)(C)C(=O)N[C@@H]5C)n(C)c12 [Example 196, (11~{R})-17-[5-[(3~{R},4~{R})-3-amino-4-methyl-piperidine-1-carbonyl]-7-methoxy-1-methyl-benzimidazol-2-yl]-8,8,11-trimethyl-1,10,19-triazatricyclo[10.5.2.0^{15,18}]nonadeca-12(19),13,15(18),16-tetraen-9-one]",0.116
9,"COc1cc(C(=O)N2CCC[C@@H](N)C2)cc2nc(-c3cc4ccc5cc4n3CCCC3CCN(CC3)C(=O)c3ccccc3-5)n(C)c12 [Example 55, 17-[5-[(3~{R})-3-aminopiperidine-1-carbonyl]-7-methoxy-1-methyl-benzimidazol-2-yl]-9,16-diazapentacyclo[14.5.2.2^{9,12).0^{2,7}.0^ {19,23}]pentacosa-1(22),2,4,6,17,19(23),20-heptaen-8-one]",4.68
